What was measured:
[1] = system: aged wild type (WT; C57BL/6) mice; assay: Histology of astrocytes (GFAP, AQP4) in CA1 hippocampus; type: in vivo, mouse
Experimental: Brains were collected following saline perfusion and separated by mid-sagittal slice with one-half drop fixed in freshly prepared 4% PFA. PFA was changed to 30% sucrose 24-48 hours later. A second change to 30% sucrose occurred 24 hours later. Brain tissue was sectioned or lysed and analyzed for GFAP, AQP4, or IBA1 by standard histological methods. Images were acquired using a confocal microscope or Axioscan slide scanner.
(§1) Three independent cohorts of aged wild type (WT; C57BL/6) mice between twenty to twenty-two months of age (20-22 mo) were homogenized into two (2) groups by body weight, total distance travelled in the open field test, and average velocity in the open field test. Group 1 was administered vehicle control PO daily. Group 2 was administered 10 mg/kg of the LTA4H inhibitor Compound 1 PO daily. Both groups were dosed for either 10 days or 4 weeks daily. Behavioral assays were run during the last week of dosing and animals were sacrificed at the end of the study for histological and molecular assays.
FIGS. 22-30 report the results of the histology of astrocytes. GFAP is a pan astrocytic marker that was used to measure total number and size of astrocytes as a readout for astrocyte reactivity. AQP4 is a water channel expressed in astrocyte endfeet that line the blood-brain barrier. GFAP and AQP4 are increased with age and diseases with cognitive decline and BBB impairment (Kress B T et al., Ann Neurol, 76(6):845-61 (2014), Owasil R et al., Int J Mol Sci, 21(4) (2020), and Qi L et al., Life Sci, 88(1-2):50-56)). FIG. 22 reports GFAP percent area (Mann-Whitney test. (n=10, 10)), FIG. 23 reports the number of GFAP+ cells (Mann-Whitney test. (n=10, 10)), and FIG. 24 reports the average size of GFAP+ cells (Mann-Whitney test. (n=10, 10)) in the CA1 region of the hippocampus following 10 days of dosing. FIG. 25 reports the AQP4 intensity across a 60 micron (um) long line drawn across the large descending vessels of the CA1 hippocampus after 10 days of dosing with vehicle or Compound 1.

[2] = system: LTA4H hydrolysis activity in mouse whole blood; assay: Ex Vivo LTB4 Assay, mouse blood; type: cell-based; settings: mouse whole blood incubated with compound
Experimental: Whole blood was incubated with Compound 1 or vehicle and then a calcium ionophore (Calcimycin, A23187), or 10% DMSO. LTB4 levels in plasma were measured using ELISA.
FIGS. 36-37 report the results of ex vivo target engagement assays with Compound 1 in human and mouse plasma. Whole blood from human or mouse was incubated with vehicle or Compound 1, following by a calcium ionophore stimulation. Plasma was generated and LTB4 levels were measured using ELISA. LTB4 is the product of LTA4H hydrolysis so this assay reports on LTA4H enzymatic activity.

aged C57BL6 mice [3] = assay: Open Field; type: in vivo, mouse
Experimental: The open field test was used to evaluate general locomotor activity and exploratory behavior in a novel environment. It consisted of a square arena (16 in ×16 in). Mice were brought to the experimental room for at least 30 min of acclimation to the experimental room conditions (dim lighting) prior to testing. Mice were placed in the center of the arena, recorded, and tracked within a predefined peripheral and center space using the photobeam activity system automated software (ANY-maze) for 15 min. Total distance traveled, average velocity, and time spent in the peripheral and center zones were analyzed.
as §1

aged C57BL6 mice [4] = assay: Nesting; type: in vivo, mouse; settings: 10 days of dosing
Experimental: All nesting material was removed from home cage and mice were given 2 fresh nestlets 12-18 hours prior to scoring. The nest was carefully scored on a scale of 0-5 by an experimenter blinded to treatment group: 0 undisturbed, 1 disturbed, 2 flat, 3 cup, 4 incomplete dome, 5 complete dome.

[5] = system: Transgenic Notch3R169C mice; assay: CADASIL Mouse Model, Example 10; type: in vivo; settings: 1 mg/kg PO bid for four months
Experimental: Transgenic Notch3^R169C mice are obtained along with transgenic Notch3^WT and/or wild type mice as described previously (Ghosh M, et al., Ann Neurol., 78(6):887-900 (2015); Rajani R M, et al., Acta Neuropathologica Comm., 7(187) (2019); and Joutel A, et al., J. Clin. Invest., 120(2):433-45 (2010), herein incorporated by reference in their entirety). Twenty Notch3R169c mice and 10 littermate control 5-month-old wild type mice are dosed with Vehicle or Compound 1 at 1 mg/kg PO bid for four months. Mice are anesthetized and blood and tissues are collected for further analysis.
Transgenic Notch3^R169C mice treated with Vehicle or Compound as described previously in section A (Experimental Procedures supra) have blood collected via cardiac puncture in syringes pre-filled with Heparin. Brains are collected following saline and Heparin infusion and separated by mid-sagittal slice. One half of the brain is drop fixed in 4% PFA and 24 hours later, the brain is changed into a solution of 15% sucrose. A secondary change to 30% sucrose is performed 48 hours after initial fixation in PFA.
Brains are then sectioned to 50 micrometers in thickness using a vibratome and placed on a slide for immunostaining and stained with PDGFRβ and LECTIN antibodies as described previously (Ghosh supra) to show pericyte coverage. The number of PDGFRβ positive pericytes per square millimeter of selected field area in the cortex is analyzed by randomly selecting four fields in nonadjacent sections at approximately 100 μm intervals.
Albumin and fibrinogen presence is measured as a positive signal in the brain parenchyma. The signals are quantified as described previously (Ghosh supra). Transgenic mice treated with Vehicle has increased albumin and fibrinogen leakiness into the brain parenchyma compared to Vehicle treated wild-type controls.
GFAP and AQP4 markers for astrocytes are measured to determine the presence of astrocyte end-feet. Transgenic mice treated with Vehicle is reduced GFAP and AQP4 compared with Vehicle treated wild-type controls. […] AQP4 and GFAP are markers for astrocyte, which make up an important part of the neurovascular unit and are lost in CADASIL mouse models and human patients.

total distance traveled in open field (aged C57BL6 mice [3]; 4 weeks of dosing): no change in total distance traveled
velocity in open field (aged C57BL6 mice [3]; 4 weeks of dosing): no change in velocity
total distance traveled in open field (aged C57BL6 mice [3]; 10 days of dosing): no change in total distance traveled
velocity in open field (aged C57BL6 mice [3]; 10 days of dosing): no change in velocity
nesting building score (aged C57BL6 mice [4]): no change in nesting building score
SMILES: O=C(O)C1CCN(Cc2ccc([C@H]3COc4ccccc4O3)cc2)CC1 [Example 1, 1-{4-[(2S)-2,3-dihydro-1,4-benzodioxin-2-yl]benzyl}piperidine-4-carboxylic acid]
AQP4 intensity across large descending vessels of CA1 hippocampus ([1]; 4 weeks of treatment): reduction in the AQP4 intensity
GFAP percent thresholded area, CA1 ([1]; 4 weeks of treatment): significant reduction GFAP percent thresholded area
total GFAP+ cell number, CA1 ([1]; 4 weeks of treatment): did not change
AQP4 intensity across large descending vessels of CA1 hippocampus ([1]; 10 days of dosing): trending reduction in AQP4 intensity
LTB4 plasma levels after calcium ionophore stimulation [2]: reduces LTB4 plasma levels to unstimulated levels
time spent in periphery (P) or center (C) (aged C57BL6 mice [3]; 4 weeks of dosing): no difference between time spent in the periphery (P) or center (C)
time spent in periphery (P) or center (C) (aged C57BL6 mice [3]; 10 days of dosing): no difference between time spent in the periphery (P) or center (C)
GFAP and AQP4 signal at vessels in the cortex [5]: increased positive signal at Lectin-positive vessels
additional blood-brain barrier markers in cortices [5]: significant levels of improvement
albumin and fibrinogen in brain parenchyma [5]: reduced albumin and fibrinogen
plasma levels of LTB4 [5]: reduction in plasma levels of LTB4
pericyte coverage and number in cortex ([5]; versus vehicle-treated transgenic mice): increase in pericyte coverage and number

Reference: US11957671B2, “Benzodioxane modulators of leukotriene A4 hydrolase (LTA4H) for prevention and treatment of aging-associated diseases” (Alkahest, Inc., priority 2021, dated 2024)
